Data as given in BindingDB's records for doi:10.1021/jm00108a040 (Eli Lilly, 1991).

Columns and labels:
[1] = target: Gastrin/cholecystokinin type B receptor (Cavia porcellus); experiment: Inhibition of [125I]-labeled CCK-8 sulfate binding to Cholecystokinin type B receptor in guinea pig brain membranes
[2] = target: Gastrin/cholecystokinin type B receptor (Cavia porcellus); experiment: as above; remark: listed apart in the source

- IC50 [1]: 330 nM
- IC50 [2]: 330 nM
Structure (SMILES): CCc1cccc(-n2c(CCc3c[nH]c4ccc(Br)cc34)nc3ccccc3c2=O)c1
